13 compounds from ChEMBL document CHEMBL1201862, “PubChem BioAssay data set” (2004) can be followed below.

Test systems include CCRF-CEM; NCI-H460; SNB-19; SNB-75; UACC-62; Hs-578T; KM12; SF-539; A498; OVCAR-3; SF-295; ACHN; NCI-H522; A549; OVCAR-5; Malme-3M; HT-29; SK-MEL-2; DU-145.
Assay in all cases: NCI tumour cell line growth inhibition, 48 h

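Results reflect a 48-hour exposure of cells in 96-well plates to compound at five concentrations. GI50 marks 50% less growth.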 The source made the active and inactive calls. Rule as the data show it: active = GI50 up to about 1.1 µM and inactive = higher.

On to `Cc1nc2c(O)cccc2c(=O)[nH]1`, for which the GI50 with CCRF-CEM was 305 µM (inactive); in the assay with NCI-H460, 263 µM (inactive); in the assay on SNB-19 it was 670 µM (inactive); in the assay with SNB-75, 233 µM (inactive); with UACC-62, 232 µM (inactive); in the assay with Hs-578T, 573 µM (inactive). The GI50 is 332 µM (inactive) in the assay on KM12; 355 µM (inactive) with SF-539; 419 µM (inactive) with A498; 542 µM (inactive) in the assay on OVCAR-3; 351 µM (inactive) in the assay on SF-295; 348 µM (inactive) with ACHN. Further, the GI50 with NCI-H522 is 356 µM (inactive); in the assay on A549 it was 360 µM (inactive); in the assay on OVCAR-5, 382 µM (inactive); with Malme-3M, 597 µM (inactive); in the assay on HT-29, 345 µM (inactive); with SK-MEL-2, > 1000 µM (inactive).
Take `COC(=O)c1c(N)n[nH]c1N`: the GI50 with CCRF-CEM is > 100 µM (inactive); in the assay on NCI-H460, > 100 µM (inactive); in the assay on SNB-19 it was > 100 µM (inactive); in the assay on SNB-75, > 100 µM (inactive); in the assay on UACC-62, 77.6 µM (inactive); with KM12 it was > 100 µM (inactive). Also, the GI50 with SF-539, with A498, with OVCAR-3, in the assay on SF-295, in the assay on NCI-H522 and with A549 was > 100 µM (inactive) in each case. Besides, the GI50 with SK-MEL-2 was > 100 µM (inactive).
Regarding `CC(CCc1ccc2c(c1)c(N)c1ccc(N)cc1[n+]2[O-])CC(C)(C)C` (centres undefined), the GI50 in the assay on CCRF-CEM is 0.542 µM (active); in the assay with NCI-H460, 0.597 µM (active); in the assay on SNB-75, 2.07 µM (inactive); in the assay with UACC-62 it was 1.45 µM (inactive); in the assay on KM12, 1.99 µM (inactive); in the assay with SF-539, 1.93 µM (inactive). Moreover, the GI50 with A498 is 1.89 µM (inactive); in the assay on OVCAR-3, 1.73 µM (inactive); in the assay on SF-295, 1.76 µM (inactive); in the assay with ACHN, 1.73 µM (inactive); in the assay on A549, 1.63 µM (inactive); with OVCAR-5 it was 1.48 µM (inactive). The values for the GI50 in the assay with Malme-3M, with HT-29 and in the assay on SK-MEL-2 were 1.87 µM (inactive), 1.22 µM (inactive) and 1.77 µM (inactive), respectively.
For `Nc1cnc2c(c1)c(=O)nc1n2CCS1`, the GI50 in the assay with DU-145 was > 100 µM (inactive); with CCRF-CEM it was 77.6 µM (inactive); in the assay on NCI-H460, > 100 µM (inactive); in the assay with SNB-19 it was > 100 µM (inactive); in the assay with SNB-75 it was 86.9 µM (inactive); with UACC-62, > 100 µM (inactive). Further, the GI50 is 55.1 µM (inactive) in the assay on KM12; > 100 µM (inactive) in the assay on SF-539; > 100 µM (inactive) in the assay on A498; > 100 µM (inactive) in the assay with OVCAR-3; > 100 µM (inactive) with SF-295; > 100 µM (inactive) in the assay with ACHN. The GI50 in the assay on A549, in the assay on OVCAR-5, in the assay on Malme-3M, in the assay on HT-29 and in the assay with SK-MEL-2 was > 100 µM (inactive) each time.
For `N#Cc1c(-c2ccccc2)c(/C=N/c2ccc(F)cc2)c(=O)n2c1[nH]c1ccccc12`, the GI50 was 15.6 µM (inactive) in the assay on CCRF-CEM; 17.8 µM (inactive) in the assay on NCI-H460; 28.3 µM (inactive) in the assay on SNB-19; 39 µM (inactive) in the assay on SNB-75; 29.6 µM (inactive) in the assay on KM12; 30.2 µM (inactive) in the assay with SF-539. The GI50 in the assay with A498 was 29.4 µM (inactive); in the assay with OVCAR-3, 19.7 µM (inactive); in the assay on SF-295, 18.5 µM (inactive); with ACHN, 18.5 µM (inactive); in the assay on NCI-H522, 16 µM (inactive); in the assay with A549, 19.7 µM (inactive). In addition, the results for the GI50 in the assay with OVCAR-5, in the assay on Malme-3M and in the assay with SK-MEL-2 were 26.7 µM (inactive), 23.6 µM (inactive) and 26.9 µM (inactive), respectively.
On to `Nc1ccccc1-n1c2c(c3ccccc3c1=O)C(=O)c1ccccc1-2`, for which the GI50 in the assay with DU-145 is 34 µM (inactive); in the assay on CCRF-CEM, 48.9 µM (inactive); with NCI-H460 it was 24.5 µM (inactive); in the assay on SNB-19, 5 µM (inactive); with SNB-75 it was 11.8 µM (inactive); in the assay with UACC-62, 17.2 µM (inactive). Moreover, the GI50 in the assay on KM12 was 71.6 µM (inactive); in the assay on SF-539, 3.13 µM (inactive); with A498, 54.5 µM (inactive); in the assay with OVCAR-3, 21.8 µM (inactive); with SF-295, 9.1 µM (inactive); in the assay with ACHN it was 5.53 µM (inactive). Besides, the GI50 was 6.58 µM (inactive) in the assay with NCI-H522; 11.5 µM (inactive) with A549; > 100 µM (inactive) with OVCAR-5; 16.3 µM (inactive) with Malme-3M; 18.4 µM (inactive) in the assay with HT-29; 19.9 µM (inactive) in the assay on SK-MEL-2.
On to `Cc1cc(C)nc(NS(=O)(=O)c2ccc(NC(=O)NC(F)(F)F)cc2)n1`, for which the GI50 in the assay on CCRF-CEM, in the assay with SNB-19, with SNB-75, with Hs-578T, with SF-539 and with A498 was > 100 µM (inactive) throughout. The GI50 in the assay with ACHN, in the assay on A549, in the assay with OVCAR-5, with HT-29 and in the assay on SK-MEL-2 was > 100 µM (inactive) each time.
On to `Oc1ccc2c(c1)c1c(n2CCN2CCOCC2)-c2ccccc2CC1`, for which the GI50 with CCRF-CEM is 32.3 µM (inactive); in the assay with NCI-H460, 5.83 µM (inactive); in the assay with SNB-19, 24.8 µM (inactive); with SNB-75 it was 28 µM (inactive); in the assay on UACC-62, 20.7 µM (inactive); in the assay on Hs-578T, 20.6 µM (inactive). Further, the GI50 with KM12 is 17.8 µM (inactive); in the assay with SF-539, 21.3 µM (inactive); in the assay on A498 it was 20.2 µM (inactive); in the assay with OVCAR-3, 22 µM (inactive); with SF-295, 36.4 µM (inactive); in the assay with ACHN, 28.2 µM (inactive). For the same compound, the GI50 in the assay on OVCAR-5 is 24.4 µM (inactive); in the assay on Malme-3M, 19.6 µM (inactive); in the assay with HT-29, 24.2 µM (inactive); with SK-MEL-2, 23.1 µM (inactive).
In the case of `O=c1[nH]nc(-c2ccccc2)c2[nH]c(-c3ccccc3)cc12`, the GI50 is > 100 µM (inactive) with DU-145; > 100 µM (inactive) with CCRF-CEM; > 100 µM (inactive) in the assay on SNB-19; 45.8 µM (inactive) in the assay on SNB-75; > 100 µM (inactive) with Hs-578T; > 100 µM (inactive) in the assay with KM12. Moreover, the GI50 is > 100 µM (inactive) with OVCAR-3; > 100 µM (inactive) with SF-295; > 100 µM (inactive) with A549; > 100 µM (inactive) with OVCAR-5; > 100 µM (inactive) in the assay on Malme-3M; 12.2 µM (inactive) in the assay with HT-29.
For `Cc1ccc(C(=O)/C=C(\O)C(=O)NC23CC4CC(CC(C4)C2)C3)cc1`, the GI50 in the assay with DU-145 was 9.95 µM (inactive); in the assay on CCRF-CEM it was 5.92 µM (inactive); in the assay on SNB-75, > 10 µM (inactive); in the assay on UACC-62, 9.02 µM (inactive); in the assay with KM12, > 10 µM (inactive); with SF-295 it was 5.86 µM (inactive). For the same compound, the GI50 with A549, in the assay on Malme-3M and in the assay with HT-29 was > 10 µM (inactive) in each case.
For `COC(=O)C1=C(C(=O)OC)C2(c3ccccc3)OC1(c1ccccc1)c1cc3ccccc3cc12`, the GI50 with CCRF-CEM was 0.451 µM (active); with NCI-H460, 3.56 µM (inactive); in the assay with SNB-19, 4.2 µM (inactive); in the assay with SNB-75, 0.604 µM (active); in the assay on UACC-62, 1.85 µM (inactive); with KM12, 1.97 µM (inactive). Further, the GI50 was 1.67 µM (inactive) in the assay on SF-539; 1.37 µM (inactive) in the assay with OVCAR-3; 6.28 µM (inactive) in the assay on SF-295; 1.68 µM (inactive) with ACHN; 1.23 µM (inactive) in the assay with NCI-H522; 2.43 µM (inactive) with A549. For the same compound, the GI50 in the assay with OVCAR-5 is 1.91 µM (inactive); with Malme-3M, 1.6 µM (inactive); with HT-29, 1.77 µM (inactive); with SK-MEL-2 it was 1.64 µM (inactive).
With `O=C(O)CCC(NC(=O)c1ccc(CNc2nc3cc(C(F)(F)F)ccc3nc2C(=O)O)cc1)C(=O)O` (centres undefined), the GI50 in the assay with DU-145, in the assay on CCRF-CEM, with NCI-H460, with SNB-19, with SNB-75 and in the assay with UACC-62 was > 100 µM (inactive) throughout. Besides, the GI50 with KM12, with SF-539, with A498, with OVCAR-3, with SF-295 and in the assay on ACHN was > 100 µM (inactive) throughout. The GI50 in the assay on NCI-H522, with A549, with OVCAR-5, with Malme-3M, in the assay on HT-29 and in the assay on SK-MEL-2 was > 100 µM (inactive) each time.
As to `BrC(c1cccc2ccccc12)c1cccc2ccccc12`, the GI50 in the assay on DU-145 is 13.6 µM (inactive); in the assay on NCI-H460, 15.9 µM (inactive); in the assay on SNB-19, 43.4 µM (inactive); in the assay on SNB-75, 13.5 µM (inactive); in the assay on UACC-62, 14.6 µM (inactive); with KM12, 15.5 µM (inactive). The GI50 was 17.6 µM (inactive) with A498; 11.9 µM (inactive) with OVCAR-3; 25.5 µM (inactive) with SF-295; 21.9 µM (inactive) in the assay on ACHN; 10.9 µM (inactive) in the assay with NCI-H522; 26.4 µM (inactive) in the assay on A549. Moreover, the GI50 in the assay on OVCAR-5 was 27.1 µM (inactive); with Malme-3M, 4.94 µM (inactive); with HT-29, 18.3 µM (inactive); with SK-MEL-2 it was 14.9 µM (inactive).
